Data from patent US20130324526A1, “[1,2,4] TRIAZOLO [4,3-B] PYRIDAZINE COMPOUNDS AS INHIBITORS OF THE C-MET TYROSINE KINASE” (NOVARTIS AG, priority 2011, published 2013).

What was measured:
[1] = tested on: GTL16 cells; test: GTL16 cell viability assay (CellTiter Glo); format: cell-based; details: Homo sapiens, GTL 16, GTL16 gastric cancer cells, 24 hours, triplicates, read-out: GTL-16 Proliferation IC50
Protocol: GTL16 cell line is derived from a gastric cancer patient. GTL16 expresses high level of c-Met receptor tyrosine kinase due to the gene amplification.
GTL16 cells were seeded in DMEM medium with 10% FBS and 1% Pene. & Strep. at 5000 cells/well/90 μL in 96 well plate and incubated overnight for attachment at 37° C. in 5% CO2 incubator. 10-fold serials dilutions of compounds were added to the cell as 10 μL/well. The final assay volume was 100 μl/well. The assay plates were incubated at 37° C. in 5% CO2 incubator for 24 hours. […] Briefly, the plates were cooled at room temperature for 10 mins and 100 μl of CellTiter Glo reagent was added into each well. Plates were shaken for 10 mins. The chemiluminescent light unit was read in Envision from Perkin Elmer. All the tests were run at triplicates. The IC50 was calculated using Spotfire software.

[2] = biological target: c-MET receptor tyrosine kinase, GST-c-MET(969-1390) (Homo sapiens, UniProt P08581); test: EPK c-MET profiling assay (LanthaScreen TR-FRET kinase assay); format: biochemical; details: 2 μM ATP, 0.3 nM enzyme, 60 minutes at room temperature; end point measurement, repeats can be about two times higher or lower; read-out: c-Met Biochem IC50
Chain of c-MET receptor tyrosine kinase, GST-c-MET(969-1390) (P08581 969-1390): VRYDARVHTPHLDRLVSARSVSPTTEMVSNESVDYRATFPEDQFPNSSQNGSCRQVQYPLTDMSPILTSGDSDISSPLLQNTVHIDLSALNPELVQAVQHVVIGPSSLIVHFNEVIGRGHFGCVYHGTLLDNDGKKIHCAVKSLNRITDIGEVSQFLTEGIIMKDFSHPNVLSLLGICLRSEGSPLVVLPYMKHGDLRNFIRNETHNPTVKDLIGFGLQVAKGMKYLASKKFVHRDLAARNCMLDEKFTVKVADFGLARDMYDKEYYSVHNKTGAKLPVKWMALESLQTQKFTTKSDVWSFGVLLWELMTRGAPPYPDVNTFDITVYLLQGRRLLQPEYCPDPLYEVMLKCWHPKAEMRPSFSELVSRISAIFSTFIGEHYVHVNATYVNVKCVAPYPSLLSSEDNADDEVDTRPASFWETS
Protocol: The exemplified compounds of the present invention were assayed in an antibody based kinase phosphorylation assay as follows.
EPK c-MET Profiling Assay:
The EPK kinase assay for c-MET receptor tyrosine kinase was developed, using the purified recombinant GST-fusion protein, containing the cytoplasmic domain of the enzyme. GST-c-MET(969-1390) was purified by affinity chromatography.
The kinase assay is based on the LanthaScreen™ technology. LanthaScreen™ is the detection of Time-Resolved Fluorescence Resonance Energy Transfer (TR-FRET) using lanthanide chelates to measure interactions between various binding partners. In a TR-FRET kinase assay, a long-lifetime lanthanide donor species is conjugated to an antibody that specifically binds to a phosphorylated product of a kinase reaction that is labeled with a suitable acceptor fluorophore. This antibody-mediated interaction brings the lanthanide donor and the acceptor into proximity such that resonance energy transfer can take place, resulting in a detectable increase in the FRET signal.
The kinase reactions were performed in 384 well microtiter plates in a total reaction volume of 10.05 μL. The assay plates were prepared with 0.05 μL per well of test compound in the appropriate test concentration, as described under “preparation of compound dilutions”. The reactions were started by combining 5 μL of ATP solution with 5 μL of enzyme-substrate mix (consisting of kinase and substrate). The final concentrations in the kinase reactions were 25 mM Tris/HCl, 1 mM DTT, 0.025% Tween20, 10 μM sodium orthovanadate, 0.25% BSA, 0.5% DMSO, 10 mM MgCl2, 3 mM MnCl2, 2 μM ATP, 50 nM Fluorescein-PolyEAY, and 0.3 nM enzyme. The reactions were incubated for 60 minutes at room temperature and stopped by adding 5 μL of stop buffer (50 mM EDTA, 0.04% NP40, 20 mM Tris/HCl). Subsequently 5 μL of detection mix (50 mM Tris/HCl, 2 mM DTT, 0.05% Tween20, 20 μM sodium orthovanadate, 1% BSA, 1 nM Tb-PY20 antibody) were added to the stopped reactions. After 45 minutes incubation in dark at room temperature, the plates were measured in a Perkinelmer Envision fluorescence reader. The effect of compound on the enzymatic activity was in all assays obtained from the linear progress curves and normally determined from one reading (end point measurement).
These endpoint results should therefore only be seen as an indicator for the activity range, since repeated measurements can result in about two times higher or lower values.

[3] = biological target: T1, human platelet PDE3 (Homo sapiens, UniProt Q14432); test: hPDE3 assay ([3H]cAMP scintillation proximity assay); format: biochemical; details: human platelet PDE3, [3H]cAMP SPA, 30 min at room temperature
T1 construct: Human platelet PDE3 (partially purified from human platelets); from tissue; host or cells: human platelets
T1 sequence (Q14432 whole entry): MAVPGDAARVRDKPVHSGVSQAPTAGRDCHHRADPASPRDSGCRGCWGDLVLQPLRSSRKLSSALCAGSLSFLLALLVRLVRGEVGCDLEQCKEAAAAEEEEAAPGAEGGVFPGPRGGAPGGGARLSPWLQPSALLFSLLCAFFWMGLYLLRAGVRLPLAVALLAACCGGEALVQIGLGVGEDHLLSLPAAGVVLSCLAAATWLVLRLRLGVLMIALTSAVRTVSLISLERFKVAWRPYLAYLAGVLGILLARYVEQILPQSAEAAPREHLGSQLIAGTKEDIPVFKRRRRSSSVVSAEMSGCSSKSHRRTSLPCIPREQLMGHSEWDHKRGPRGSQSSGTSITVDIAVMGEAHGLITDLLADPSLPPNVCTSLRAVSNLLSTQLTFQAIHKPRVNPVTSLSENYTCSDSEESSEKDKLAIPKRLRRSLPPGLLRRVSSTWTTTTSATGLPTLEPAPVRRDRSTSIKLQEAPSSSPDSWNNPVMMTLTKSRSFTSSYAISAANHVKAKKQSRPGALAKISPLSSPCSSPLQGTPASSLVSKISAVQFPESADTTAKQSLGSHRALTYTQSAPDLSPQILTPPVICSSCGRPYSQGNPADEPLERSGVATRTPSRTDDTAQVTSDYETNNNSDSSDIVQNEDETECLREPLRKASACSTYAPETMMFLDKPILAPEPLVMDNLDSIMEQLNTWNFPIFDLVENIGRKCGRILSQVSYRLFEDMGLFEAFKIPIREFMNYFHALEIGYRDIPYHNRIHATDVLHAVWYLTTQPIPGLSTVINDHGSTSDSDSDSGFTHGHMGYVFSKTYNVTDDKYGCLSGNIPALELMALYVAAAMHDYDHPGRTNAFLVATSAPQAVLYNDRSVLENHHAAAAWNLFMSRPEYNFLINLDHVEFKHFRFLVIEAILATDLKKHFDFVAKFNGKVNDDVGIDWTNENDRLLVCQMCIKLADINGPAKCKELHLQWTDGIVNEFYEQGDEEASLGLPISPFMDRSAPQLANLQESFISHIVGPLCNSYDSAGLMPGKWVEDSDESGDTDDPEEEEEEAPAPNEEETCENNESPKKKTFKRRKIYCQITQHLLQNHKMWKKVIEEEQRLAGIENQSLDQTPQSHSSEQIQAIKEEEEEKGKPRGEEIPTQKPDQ

Compound	IC50 [2]	IC50 [3]	IC50 [1]
C/C(=N\O)c1ccc2nnc(Sc3ccc4ncc(N5CCOCC5)cc4c3)n2n1 [Example 10, (E)-1-[3-(3-Morpholin-4-yl-quinolin-6-ylsulfanyl)-[1,2,4]triazolo[4,3-b]pyridazin-6-yl]-ethanone oxime]	4 nM	–	1 nM
C/C(=N\OCC1CC1)c1ccc2nnc(C(C)c3ccc4ncc(CN5CCOCC5)cc4c3)n2n1 (centres unmarked) [Example 9, (E)-1-{3-[1-(3-Morpholin-4-ylmethyl-quinolin-6-yl)-ethyl]-[1,2,4]triazolo[4,3-b]pyridazin-6-yl}-ethanone O-cyclopropylmethyl-oxime]	86 nM	–	311 nM
CO/N=C(\C)c1ccc2nnc(Cc3ccc4ncc(-c5cnn(C)c5)cc4c3)n2n1 [Example 6, (E)-1-{3-[3-(1-Methyl-1H-pyrazol-4-yl)quinolin-6-ylmethyl]-[1,2,4]triazolo[4,3-b]pyridazin-6-yl}-ethanone O-methyl-oxime]	4 nM	–	0.5 nM
C/C(=N\O)c1ccc2nnc(Cc3c(F)cc4ncc(-c5c(C)noc5C)cc4c3F)n2n1 [Example 23, (E)-1-(3-((3-(3,5-Dimethylisoxazol-4-yl)-5,7-difluoroquinolin-6-yl)methyl)-[1,2,4]triazolo[4,3-b]pyridazin-6-yl)ethanone oxime]	8 nM	–	11 nM
CO/N=C(\C)c1ccc2nnc([C@H](C)c3ccc4ncc(-c5cnn(C)c5)cc4c3)n2n1 [Example 3-(R)]	26 nM	11000 nM	27 nM
CCN(CC)Cc1cnc2ccc(Sc3nnc4ccc(/C(C)=N/O)nn34)cc2c1 [Example 32, (E)-1-(3-((3-((diethylamino)methyl)quinolin-6-yl)sulfanyl)-[1,2,4]triazolo[4,3-b]pyridazin-6-yl)ethanone oxime]	4 nM	> 30000 nM	256 nM
C/C(=N\O)c1ccc2nnc(Cc3ccc4ncc(-c5cnn(C)c5)cc4c3)n2n1 [Example 12, (E)-1-(3-((3-(1-Methyl-1H-pyrazol-4-yl)quinolin-6-yl)methyl)-[1,2,4]triazolo[4,3-b]pyridazin-6-yl)ethanone oxime]	0.5 nM	9000 nM	1 nM
CCO/N=C(\C)c1ccc2nnc(C(C)c3ccc4ncc(-c5cnn(C)c5)cc4c3)n2n1 (centres unmarked) [Example 2, (E)-1-(3-{1-[3-(1-Methyl-1H-pyrazol-4-yl)quinolin-6-yl]-ethyl}-[1,2,4]triazolo[4,3-b]pyridazin-6-yl)-ethanone O-ethyl-oxime]	6 nM	–	2 nM
C/C(=N\O)c1ccc2nnc(C(C)c3ccc4ncc(-c5cnn(C)c5)cc4c3)n2n1 (centres unmarked) [Example 1, (E)-1-(3-{1-[3-(1-Methyl-1H-pyrazol-4-yl)quinolin-6-yl]-ethyl}-[1,2,4]triazolo[4,3-b]pyridazin-6-yl)-ethanone oxime]	5 nM	–	9 nM
C/C(=N\OCC1CC1)c1ccc2nnc(C(C)c3ccc4ncc(-c5cnn(C)c5)cc4c3)n2n1 (centres unmarked) [Example 4, (E)-1-(3-{1-[3-(1-Methyl-1H-pyrazol-4-yl)quinolin-6-yl]-ethyl}-[1,2,4]triazolo[4,3-b]pyridazin-6-yl)-ethanone O-cyclopropylmethyl-oxime]	25 nM	–	–
C/C(=N\O)c1ccc2nnc(Cc3ccc4ncc(CN5CCN(C)CC5)cc4c3)n2n1 [Example 16, (E)-1-(3-((3-((4-Methylpiperazin-1-yl)methyl)quinolin-6-yl)methyl)-[1,2,4]triazolo[4,3-b]pyridazin-6-yl)ethanone oxime]	25 nM	–	491 nM
C/C(=N\O)c1ccc2nnc(Cc3ccc4ncc(N5CCC(O)CC5)cc4c3)n2n1 [Example 20, (E)-1-(3-((3-(4-Hydroxypiperidin-1-yl)quinolin-6-yl)methyl)-[1,2,4]triazolo[4,3-b]pyridazin-6-yl)ethanone oxime]	4 nM	–	17 nM
C/C(=N\O)c1ccc2nnc(Sc3ccc4ncc(N5CCC(N(C)C)C5)cc4c3)n2n1 (centres unmarked) [Example 33, (E)-1-(3-((3-(3-(dimethylamino)pyrrolidin-1-yl)quinolin-6-yl)sulfanyl)-[1,2,4]triazolo[4,3-b]pyridazin-6-yl)ethanone oxime]	0.9 nM	–	1 nM
C/C(=N\O)c1ccc2nnc(Cc3ccc4ncc(N5C[C@@H]6C[C@H]5CN6C)cc4c3)n2n1 [Example 19, (E)-1-(3-((3-((1S,4S)-5-Methyl-2,5-diazabicyclo[2.2.1]heptan-2-yl)quinolin-6-yl)methyl)-[1,2,4]triazolo[4,3-b]pyridazin-6-yl)ethanone oxime]	5 nM	–	12 nM
C/C(=N\O)c1ccc2nnc(C3(c4ccc5ncc(N6CCN(C)CC6)cc5c4)CC3)n2n1 [Example 27]	31 nM	–	240 nM

Further lines, with some results ahead:

IC50 [2]	IC50 [3]	Compound	IC50 [1]
2 nM	–	C/C(=N\O)c1ccc2nnc(Cc3ccc4ncc(NC5CCOCC5)cc4c3)n2n1 [Example 34, (E)-1-{3-[3-(Tetrahydro-pyran-4-ylamino)-quinolin-6-ylmethyl]-[1,2,4]triazolo[4,3-b]pyridazin-6-yl}-ethanone oxime]	10 nM
3 nM	> 30000 nM	C/C(=N\O)c1ccc2nnc(Sc3ccc4ncc(CN5CCOCC5)cc4c3)n2n1 [Example 31, (E)-1-(3-((3-(Morpholin-4-yl-methyl)quinolin-6-yl)sulfanyl)-[1,2,4]triazolo[4,3-b]pyridazin-6-yl)-ethanone oxime]	23 nM
23 nM	1200 nM	C/C(=N\OCC1CC1)c1ccc2nnc([C@@H](C)c3ccc4ncc(-c5cnn(C)c5)cc4c3)n2n1 [Example 4-(S)]	9 nM
146 nM	6000 nM	C/C(=N\O)c1ccc2nnc([C@H](C)c3c(F)cc4ncc(C(C)(C)O)cc4c3F)n2n1 [24-(R)]	126 nM
15 nM	> 30000 nM	C/C(=N\O)c1ccc2nnc(Cc3c(F)cc4ncc(C5CCCCC5)cc4c3F)n2n1 [Example 26, (E)-1-(3-((3-Cyclohexyl-5,7-difluoroquinolin-6-yl)methyl)-[1,2,4]triazolo[4,3-b]pyridazin-6-yl)-ethanone oxime]	93 nM
3 nM	–	CCO/N=C(\C)c1ccc2nnc(Cc3ccc4ncc(-c5cnn(C)c5)cc4c3)n2n1 [Example 8, (E)-1-{3-[3-(1-Methyl-1H-pyrazol-4-yl)quinolin-6-ylmethyl]-[1,2,4]triazolo[4,3-b]pyridazin-6-yl}-ethanone O-ethyl-oxime]	0.3 nM
5 nM	–	C/C(=N\N)c1ccc2nnc(C(C)c3ccc4ncc(-c5cnn(C)c5)cc4c3)n2n1 (centres unmarked) [Example 5]	1 nM
11 nM	–	C/C(=N\OCC1CC1)c1ccc2nnc(Cc3ccc4ncc(-c5cnn(C)c5)cc4c3)n2n1 [Example 7, (E)-1-{3-[3-(1-Methyl-1H-pyrazol-4-yl)quinolin-6-ylmethyl]-[1,2,4]triazolo[4,3-b]pyridazin-6-yl}-ethanone O-cyclopropylmethyl-oxime]	8 nM
207 nM	–	C/C(=N\O)c1ccc2nnc(Cc3ccc4ncc(CN5CCCCC5)cc4c3)n2n1 [Example 18, (E)-1-(3-((3-(Piperidin-1-ylmethyl)quinolin-6-yl)methyl)-[1,2,4]triazolo[4,3-b]pyridazin-6-yl)ethanone oxime]	317 nM
3 nM	–	C/C(=N\O)c1ccc2nnc(Cc3c(F)cc4ncc(CN5CCOCC5)cc4c3F)n2n1 [Example 17, (E)-1-(3-((5,7-Difluoro-3-(morpholin-4-yl-methyl)quinolin-6-yl)methyl)-[1,2,4]triazolo[4,3-b]pyridazin-6-yl)ethanone oxime]	10 nM
